Measurements taken from patent US20210348171A1, “PHARMACOPROTEOMICS PLATFORM IDENTIFYING KINOME FEATURES REGULATING DRUG RESPONSE IN CANCER” (University of Washington, priority 2020, published 2021).

Experiments:
Assay type in all cases: cell-based, Human
[1] = tested on: SNU449 cells; assay: Inhibitor co-treatment growth inhibition (WZ4003 with AZD7762 or dinaciclib); details: for dose dependence of the cotreatment effect: AZD7762 plus WZ4003; for decrease of EC50 on cotreatment with WZ4003: cotreatment with NUAK1/2 inhibitor WZ4003, 72 h, n=4
Excerpt: To identify combinatorial treatment strategies targeting mesenchymal and drug resistant HCC cells, the next step was to analyze drug sensitivity pathways that become activated upon AXL and NUAK1/2 inhibition and EMT reversal. […] It was also observed increased cell cycle activity among epithelial lines in the 17 HCC line panel (FIG. 9B), that was accompanied by elevated activity of kinases promoting DDR signaling and cell survival under conditions of replication stress. For instance, activation of CHEK1 and 2 along with increased phosphorylation of ATR, CHEK1/2 and WEE1 substrates were observed (FIGS. 4A and 9C). Similarly, AXL RNAi in FOCUS cells activated the DDR kinases CHEK1 and WEE1, increasing phosphorylation of their substrates CDK11B and CDK2 (FIGS. 4B and 9D). […] It was reasoned, therefore, that combinatorial inhibition of AXL or NUAK1/2, as well as cell cycle checkpoint kinases could efficiently kill mesenchymal HCC cells (FIG. 4D). To test this strategy, the mesenchymal and drug resistant SNU449 line was cotreated with the selective NUAK1/2 inhibitor WZ4003 (Banerjee, S., et al. (2014). Characterization of WZ4003 and HTH-01-015 as selective inhibitors of the LKB1-tumour-suppressor-activated NUAK kinases. Biochem J 457, 215-225, incorporated herein by reference in its entirety) and the CHEK1/2 inhibitor AZD7762. Additionally, the CDK inhibitor dinaciclib was used to test if elevated, EMT state-dependent, cell cycle activity translates into increased efficacy of such drugs. […] These encouraging results led to establishment of SNU449 NUAK1 or NUAK2 RNAi cells (FIG. 9E). Gratifyingly, treating SNU449 NUAK RNAi cells and WT controls with varying doses of AZD7762 and dinaciclib recapitulated the drug co-treatment results (˜3- to 4-fold decrease in EC50s, FIG. 4H). To consolidate these findings, the FOCUS NUAK and AXL RNAi cell lines were tested against AZD7762 and dinaciclib. As in SNU449 cells, NUAK1/2 RNAi FOCUS cells were sensitized to kinase inhibition up to ˜5-fold (FIG. 4I).
1800 cells/well were seeded onto white flat bottom half area 96-well plates (Greiner Bio-One, Kremsmuenster, AT) in 50 μl of growth medium and allowed to attach in an incubator for 24 h. Then the drugs in DMSO and/or DMSO vehicle controls as 11× solutions in growth medium were added to a total volume of 55 μl and 0.1% DMSO final. The cells were grown in an incubator for another 72 h. Then, 55 μl of CellTiter-Glo 2.0 (Promega, Madison, Wis.) reagent/well were added according to the manufacturer's instructions and luminescence was quantified with a SpectraMax 190 plate reader (Molecular Devices, San Jose, Calif.). The CHEK1/2 inhibitor AZD7762 (Selleckchem, Houston, Tex.) and the NUAK1/2 inhibitor WZ4003 (Tocris Bioscience, Minneapolis, Minn.) were applied at 8 different concentrations between 10 μM and 4.6 nM (3-fold dilution steps) and Dinaciclib (Selleckchem) was applied at 8 different concentrations between 1 μM and 0.5 nM (3-fold dilution steps). Experiments were performed in four biological replicates. Growth inhibition curves were fitted using the GraphPad Prism software package (V5.0a) with a least-squares nonlinear regression model for curve fitting (One site-Fit log IC50 function).

[2] = tested on: mesenchymal HCC cells with CAMK1D shRNAi knockdown; assay: Drug sensitization in CAMK1D knockdown lines (Cell Titer Glo 2.0); details: RNAi lines vs scramble control, 72 hours
Excerpt: The approach to validate the role AAK1 is represented schematically in FIG. 10A. As illustrated, the general workflow pipeline is to test the biological function of kinases and their interaction partners function in EMT and cancer therapy resistance. (1) Kinases and their interaction partners are depleted from cell lines using either small hairpin RNAs (shRNAs) or CRISPR/Cas9 knockout. (2) Effects of RNAi knockdown (KD) or CRISPR knockout (KO) are quantified on cellular signaling pathways using unbiased MS-based kinome-centric and global proteome and phosphoproteome profiling. (3) KD/KO effects on EMT state are studied by quantifying 12 well-known EMT and stemness markers such as CDH1, VIM, SNAI2 and TWIST1 using qPCR and western blotting. (4) KD/KO effects are confirmed/determined on cancer therapy resistance by treating KD/KO cell lines with 15 clinical and pre-clinical HCC drugs, quantifying cell viability using the Promega Cell Titer Glo 2.0 assay. […] (5) KD/KO effects are measured on cell migration and invasion by conducting trans-well migration and wound scratch assays. […]
Further analyses of CAMK1D were conducted to further investigate its role in EMT and potential therapeutic target. […] Phosphoproteins were quantified using global MS-based phosphoproteomics according to our previously published protocol. […]

[3] = tested on: FOCUS, SKHep1, SNU761 RNAi lines; assay: Drug synergy in AAK1, RALBP1, REPS1, REPS2 knockdown lines (Cell Titer Glo 2.0); details: RNAi lines vs scramble control, 72 hours
Excerpt: (1) Kinases and their interaction partners are depleted from cell lines using either small hairpin RNAs (shRNAs) or CRISPR/Cas9 knockout. […] This assay aims to discover drug synergies that may be exploited to develop novel combination therapies.
The next step was to assess the ability of an AAK1 knockdown to sensitize the cells to extant KI targeting therapeutics.

Structure (SMILES) | dose dependence of the cotreatment effect [1] | decrease of EC50 on cotreatment with WZ4003 [1] [fold] | effect of CAMK1D knockdown on drug treatment [2] | effect of knockdown of AAK1 and interaction partners on drug treatment [3] | significance of the cotreatment effect at low WZ4003 ([1]; 1 μM of WZ4003 with AZD7762)
NC(=O)Nc1cc(-c2cccc(F)c2)sc1C(=O)N[C@H]1CCCNC1 [AZD7762] | dose-dependent | ~3 | sensitizes | sensitizes | –
O=c1[nH]c2ccc(Cl)cc2c(N[C@@H]2CN3CCC2CC3)c1-c1nc2ccccc2[nH]1 [CHIR-124] | – | – | sensitizes | sensitizes | –
CCC(=O)Nc1cccc(Oc2nc(Nc3ccc(N4CCN(C)CC4)cc3OC)ncc2Cl)c1 [WZ4003] | dose-dependent | – | – | – | still significant
CCc1cnn2c(NCc3ccc[n+]([O-])c3)cc(N3CCCC[C@H]3CCO)nc12 [dinaciclib, Dinaciclib] | – | ~2 | – | – | –
